Assay results reported in publication PMC8246065 (The EMBO Journal, 2021).

Legend:
HeLa NOD1 or NOD2 cells = test: Western blot analysis in HeLa NOD1 or NOD2 cells; type: cell-based, human
Description: Cells were lysed in RIPA buffer supplemented with protease inhibitor cocktail and PhosSTOP (Roche, 4906837001) on ice for 10 min. After centrifugation at 16,000 × g for 10 min, supernatants were heated with SDS sample buffer at 95°C for 10 min. Proteins were separated on 4–15% SDS gels (Bio‐Rad, 4561086) and transferred onto nitrocellulose membranes. The membranes were incubated with primary antibodies at 4°C overnight and secondary antibodies at RT for 1 h, respectively. All antibodies were diluted in PBS supplemented with 0.1% Tween‐20 (Sigma‐Aldrich, P1379) and 5% BSA. Membranes were developed with ECL detection Kit (Thermo Fisher Scientific, 34094) and exposed with ChemiDoc (Bio‐Rad). The antibody against ACTB/β‐actin was used as loading control.

NOD1∆CARD = biological target: T1, NOD1∆CARD (Homo sapiens, UniProt Q9Y239); test: MST with cell lysates expressing NOD1 mutants; type: binding; conditions: Fig EV5D
T1 sequence (Q9Y239 196-953 limits assumed): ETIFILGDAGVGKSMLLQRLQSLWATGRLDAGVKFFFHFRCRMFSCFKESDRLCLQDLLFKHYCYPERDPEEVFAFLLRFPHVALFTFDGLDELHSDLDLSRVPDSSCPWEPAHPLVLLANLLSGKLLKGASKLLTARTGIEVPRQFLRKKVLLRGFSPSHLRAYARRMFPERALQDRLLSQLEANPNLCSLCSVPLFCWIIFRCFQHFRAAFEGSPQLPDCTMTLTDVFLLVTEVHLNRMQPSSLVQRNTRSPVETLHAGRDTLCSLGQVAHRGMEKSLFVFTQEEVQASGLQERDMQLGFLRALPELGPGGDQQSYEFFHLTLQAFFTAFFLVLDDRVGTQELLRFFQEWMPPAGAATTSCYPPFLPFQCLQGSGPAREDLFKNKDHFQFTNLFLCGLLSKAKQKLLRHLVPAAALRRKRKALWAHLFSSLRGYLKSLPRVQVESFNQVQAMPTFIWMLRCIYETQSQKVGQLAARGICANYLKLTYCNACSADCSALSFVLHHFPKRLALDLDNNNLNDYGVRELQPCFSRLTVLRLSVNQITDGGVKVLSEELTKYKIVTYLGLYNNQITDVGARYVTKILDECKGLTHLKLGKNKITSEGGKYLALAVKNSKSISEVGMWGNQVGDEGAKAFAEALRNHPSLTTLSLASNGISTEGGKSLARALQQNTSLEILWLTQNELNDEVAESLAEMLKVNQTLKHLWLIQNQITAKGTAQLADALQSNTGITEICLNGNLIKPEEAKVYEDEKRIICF
Description: Binding of NOD1, NOD2, GFP, or NLRP3‐GFP to different ligands was measured by microscale thermophoresis (MST). 20 nM GFP or GFP‐tagged proteins in MST buffer (PBS pH 7.4, containing 0.5% NP‐40 and 10 mM DTT) was incubated with different concentrations of ligands. Immediately, samples were loaded into standard glass capillaries (NanoTemper) and thermophoresis analysis was performed on a NanoTemper Monolith NT.115 instrument (40% LED, 80% MST power) at 22°C. A laser on‐time of 30 s and a laser off‐time of 5 s were used. The experiment was performed in triplicates, and the MST curves were fitted using NT analysis software to obtain the K d values.

NOD1 and NOD2 = test: Immunoprecipitation with lipid-coated beads; type: binding, human; conditions: HeLa NOD1-GFP / NOD2-GFP lysates, room temperature 2 h
Description: HeLa NOD1 or NOD2 cells were grown overnight and afterward treated with doxycycline overnight to induce NOD1 or NOD2 expression. Cells of one 10‐cm dish were lysed with 500 µl of lysis buffer (25 mM Tris–HCl, pH 7.5, 150 mM NaCl, 1 mM EDTA, 1% NP‐40, and 5% glycerol) supplemented with protease inhibitors (Roche, 05892791001) on ice for 20 min. Lysates were centrifuged at 16,000 × g at 4°C for 10 min, and supernatants were mixed with GFP‐Trap agarose (ChromoTek GmbH, gta‐20) overnight at 4°C. Afterward, agaroses were washed twice with PBS and boiled with sample buffer for SDS–PAGE. For lipid‐coated beads IP, lipid‐coated beads were incubated with supernatants for 2 h at room temperature and then washed with lysis buffer for three times and boiled with sample buffer for SDS–PAGE.

Compound: CCCCCCCCCCCCC/C=C/[C@@H](O)[C@@H](N)COP(=O)(O)O [S1P, sphingosine‐1‐phosphate]
- NOD1 or NOD2 degradation (HeLa NOD1 or NOD2 cells; 20 µM with digitonin, Fig EV4G): did not induce NOD1 or NOD2 degradation
- MAPK activation and NF-κB activation (HeLa NOD1 or NOD2 cells; cytosolic S1P 20 µM): triggered MAPK activation and NF‐κB activation
- Interaction with NOD1∆CARD by MST (NOD1∆CARD): still interacted
- Immunoprecipitation of NOD1 and NOD2 with lipid-coated beads (NOD1 and NOD2): specifically immunoprecipitated
